Source: patent EP4371976B1, “IONIZABLE LIPIDS AND LIPID NANOPARTICLES CONTAINING THEREOF” (Certest Biotec, S.L., priority 2022, dated 2024)

How the values were obtained:
[1] = Size distribution, polydispersity and Z-potential of LNPs by dynamic light scattering (Malvern Zetasizer); assay type: physicochemical; settings: LNPs, standard formulation 50:10:38.5:1.5; DLS
Experimental: (§1) The LNP solution was then adjusted to a final concentration of mRNA of 100 µg/ml. Size distribution, polydispersity and Z-potential were measured by dynamic light scattering (DLS) using Malvern Zetasizer Advance Lab Blue Label. RNA encapsulation was assessed by Quant-IT® Ribogreen following the manufacturer's instructions.

[2] = RNA encapsulation efficiency of LNPs by Quant-IT Ribogreen; assay type: physicochemical; settings: LNPs with luciferase mRNA; ionizable lipid:non-cationic lipid:sterol:PEG-modified lipid 50:10:38.5:1.5; percentage of RNA entrapped in the LNP
Experimental: The mRNA aqueous solution was then carefully added to the ethanol solution, and the resulted solution was homogenized by pipetting up and down for 4-5 times. The resulting LNPs were immediately diluted 1:1 with Tris buffer and dialyzed overnight against Tris buffer containing 15% sucrose. The resulting LNP solution was then collected, and the encapsulated mRNA was assessed by Quant-IT® Ribogreen (Invitrogen R11490) following the manufacturer's instructions.
as §1

| P.D.I. [1] | Particle size/ Ø (nm) [1] [nm] | Z Potential (± D.E.) [mV] [1] [mV] | Encaps. efficiency (%) [2] [%] | Compound |
| --- | --- | --- | --- | --- |
| 0.26 | 164 | 7.65 | 97.41 | CCCCCCCCCCCCCCCCCCOC(=O)CCSCC(CC(=O)NC1CCN(C)CC1)C(=O)OCC(CCCCCC)CCCCCCCC (stereo not shown) [VC-LC-0530] |
| 0.18 | 197.6 | 2.43 | 93.35 | CCCCCCCCC(CCCCCC)C(=O)NC(CCSCCC(=O)OCCCCCCCC(C)C)C(=O)NCCCN1CCCC1 (stereo not shown) [VC-LC-0243] |
| 0.18 | 161.7 | -17.24 | 44.25 | CCCCCCCCCCCCOC(=O)CCSCCC(NC(=O)C(CCCCCC)CCCCCCCC)C(=O)NCCCn1ccnc1 (stereo not shown) [VC-LC-0260] |
| 0.15 | 129.9 | 3.83 | 97.01 | CCCCCCCCCCCCCOC(=O)CCSCC(CC(=O)NC1CCN(C)CC1)C(=O)OCC(CCCCCC)CCCCCCCC (stereo not shown) [VC-LC-0524] |
| 0.19 | 178.1 | 5.74 | 98.35 | CCCCCCCCCCCCCCCCCCCCCCOC(=O)CCSCC(CC(=O)NC1CCN(C)CC1)C(=O)OCC(CCCCCC)CCCCCCCC (stereo not shown) [VC-LC-0533] |
| – | – | 0.00 | 98.48 | CCCCCCCCCCCCCOC(=O)CCSCCC(NC(=O)C(CCCCCC)CCCCCCCC)C(=O)NCCCN(C)C (stereo not shown) [VC-LC-0099] |
| 0.09 | 120 | -15.84 | 23.97 | CCCCCCCCC(CCCCCC)C(=O)NC(CCSCCC(=O)OCCCCCC)C(=O)NCCCN1CCOCC1 (stereo not shown) [VC-LC-0175] |
| 0.14 | 156.7 | -2.41 | 72.79 | CCCCCCCCC(CCCCCC)C(=O)NC(CCSCCC(=O)OCCCCCC(C)C)C(=O)NC1CCN(C)CC1 (stereo not shown) [VC-LC-0217] |
| 0.18 | 158.7 | 3.38 | 86.70 | CCCCCCCCC(CCCCCC)C(=O)NC(CCSCCC(=O)OCCCCCC(C)C)C(=O)NCCN1CCN(C)CC1 (stereo not shown) [VC-LC-0186] |
| 0.11 | 135.2 | 4.77 | 87.02 | CCCCCCCCOC(=O)CCSCCC(NC(=O)C(CCCCCC)CCCCCCCC)C(=O)NCCN1CCN(C)CC1 (stereo not shown) [VC-LC-0191] |
| 0.16 | 177.3 | 5.96 | 94.64 | CCCCCCCCCCCCOC(=O)CCSCCC(NC(=O)C(CCCCCC)CCCCCCCC)C(=O)NCCCN1CCCC1 (stereo not shown) [VC-LC-0245] |
| – | – | 0.00 | 98.70 | CCCCCCCCCCCCCCCCOC(=O)CCSCCC(NC(=O)C(CCCCCC)CCCCCCCC)C(=O)NCCCN(C)C (stereo not shown) [VC-LC-0106] |
| – | – | 0.00 | 100.00 | CCCCCCCCC(CCCCCC)C(=O)NC(CCSCCC(=O)OCCCCCC(C)C)C(=O)NCCCN(C)C (stereo not shown) [VC-LC-0107] |
| 0.24 | 228.8 | -23.07 | 53.65 | CCCCCCCCC(CCCCCC)C(=O)NC(CCSCCC(=O)OCCCCCC(C)C)C(=O)NCCCN1CCOCC1 (stereo not shown) [VC-LC-0171] |
| 0.21 | 181.9 | -26.69 | 45.16 | CCCCCCCCC(CCCCCC)C(=O)NC(CCSCCC(=O)OCCCCCCCC(C)C)C(=O)NCCCN1CCOCC1 (stereo not shown) [VC-LC-0165] |
| 0.2 | 137.4 | 4.55 | 98.83 | CCCCCCCCCCCCOC(=O)CCSCC(CC(=O)NC1CCN(C)CC1)C(=O)OCC(CCCCCC)CCCCCCCC (stereo not shown) [VC-LC-0528] |
| 0.19 | 197.5 | -4.28 | 87.95 | CCCCCCCCC(CCCCCC)C(=O)NC(CCSCCC(=O)OCCCCCCCC(C)C)C(=O)NCCN1CCN(C)CC1 (stereo not shown) [VC-LC-0180] |
| 0.16 | 175 | 1.09 | 53.57 | CCCCCCCCC(CCCCCC)C(=O)NC(CCSCCC(=O)OCC(CC)CCCC)C(=O)NCCCN1CCCC1 (stereo not shown) [VC-LC-0244] |
| 0.09 | 160.7 | -10.37 | 65.74 | CCCCCCCCCCCCCOC(=O)CCSCC(CC(=O)NCCCn1ccnc1)C(=O)OC(CCCCCCCC)CCCCCCCC (stereo not shown) [VC-LC-0294] |
| 0.17 | 156.9 | -9.75 | 36.51 | CCCCCCCCCCCCCCCCCCOC(=O)CCSCC(CC(=O)NCCCn1ccnc1)C(=O)OC(CCCCCCCC)CCCCCCCC (stereo not shown) [VC-LC-0300] |
| – | – | 0.00 | 100.00 | CCCCCCCCCCCCOC(=O)CCSCCC(NC(=O)C(CCCCCC)CCCCCCCC)C(=O)NCCCN(C)C (stereo not shown) [VC-LC-0103] |
| – | – | 0.00 | 100.00 | CCCCCCCCCCCCCCOC(=O)CCSCCC(NC(=O)C(CCCCCC)CCCCCCCC)C(=O)NCCCN(C)C (stereo not shown) [VC-LC-0104] |

| Compound | P.D.I. [1] | Particle size/ Ø (nm) [1] [nm] | Z Potential (± D.E.) [mV] [1] [mV] | Encaps. efficiency (%) [2] [%] |
| --- | --- | --- | --- | --- |
| CCCCCCCCC(CCCCCC)C(=O)NC(CCSCCC(=O)OCCCCCCCC(C)C)C(=O)NC1CCN(C)CC1 (stereo not shown) [VC-LC-0211] | 0.14 | 181 | -4.59 | 67.87 |
| CCCCCCCC/C=C\CCCCCCCC(=O)NC(CCSCCC(=O)OCCCCCCCCCCCC)C(=O)NC1CCN(C)CC1 (stereo not shown) [VC-LC-0326] | 0.25 | 181.9 | 7.00 | 99.06 |
| CCCCCCCCCCCCCOC(=O)CCSCCC(NC(=O)C(CCCCCCCC)CCCCCCCCCC)C(=O)NC1CCN(C)CC1 (stereo not shown) [VC-LC-0556] | 0.14 | 156.7 | -7.57 | 54.53 |
| CCCCCCCCC(CCCCCCCC)OC(=O)C(CCSCCC(=O)OCCCCCC(C)C)C(=O)NCCCn1ccnc1 (stereo not shown) [VC-LC-0370] | 0.21 | 134.7 | -7.08 | 62.48 |
| CCCCCCCCCCCCCCCCOC(=O)CCSCCC(NC(=O)C(CCCCCC)CCCCCCCC)C(=O)NCCCN1CCOCC1 (stereo not shown) [VC-LC-0170] | – | 266.4 | -22.79 | 56.36 |
| CCCCCCCCCCCCCCCCCCCCCCOC(=O)CCSCCC(C(=O)NCCCn1ccnc1)C(=O)OC(CCCCCCCC)CCCCCCCC (stereo not shown) [VC-LC-0363] | 0.18 | 143.9 | -17.92 | 63.87 |
| CCCCCCCCCCCCCCCCCCOC(=O)CCSCCC(NC(=O)CCCCCCCCCCCCCCCCC)C(=O)NCCCN1CCOCC1 (stereo not shown) [VC-LC-0380] | 0.25 | 170.6 | -17.08 | 71.74 |
| CCCCCCCCCCCCCCCCCCOC(=O)CCSCCC(C(=O)NCCCn1ccnc1)C(=O)OC(CCCCCCCC)CCCCCCCC (stereo not shown) [VC-LC-0368] | 0.1 | 140.9 | -15.81 | 89.08 |
| CCCCCCCCCCCCOC(=O)CCSCCC(C(=O)NCCCN1CCOCC1)C(=O)OCC(CCCCCC)CCCCCCCC (stereo not shown) [VC-LC-0609] | 0.16 | 168.6 | -20.42 | 54.21 |
| CCCCCCCC/C=C\CCCCCCCC(=O)NC(CCSCCC(=O)OCCCCCCCCCCCCCCCC)C(=O)NCCCN(CCO)CCO (stereo not shown) [VC-LC-0290] | – | 266.4 | -22.79 | 56.36 |
| CCCCCCCC/C=C\CCCCCCCC(=O)NC(CCSCCC(=O)OCCCCCC(C)C)C(=O)NCCCN(CCO)CCO (stereo not shown) [VC-LC-0293] | 0.13 | 178.6 | 12.29 | 92.48 |
| CCCCCCCCCCCCCCCCOC(=O)CCSCCC(NC(=O)C(CCCCCC)CCCCCCCC)C(=O)NCCCN(CCO)CCO (stereo not shown) [VC-LC-0201] | – | 259.7 | 2.80 | 86.70 |
| CCCCCCCCOC(=O)CCSCCC(NC(=O)C(CCCCCC)CCCCCCCC)C(=O)NCCCn1ccnc1 (stereo not shown) [VC-LC-0269] | 0.15 | 176.7 | -10.28 | 36.60 |
| CCCCCCCC#CCOC(=O)CCSCCC(NC(=O)CCCCCCCCCCCCCCCCC)C(=O)NC1CCN(C)CC1 (stereo not shown) [VC-LC-0437] | 0.23 | 152 | 7.76 | 99.92 |
| CCCCCCCCC(CCCCCC)C(=O)NC(CCSCCC(=O)OCCCCCC)C(=O)NCCCN(CCO)CCO (stereo not shown) [VC-LC-0206] | 0.17 | 179.9 | -2.86 | 82.26 |
| CCCCCCCC/C=C\CCCCCCCC(=O)NC(CCSCCC(=O)OCCCCCCCCCCCCC)C(=O)NC1CCN(C)CC1 (stereo not shown) [VC-LC-0322] | 0.17 | 220.5 | 2.31 | 97.01 |
